Measurements reported in article PMC11177801 (Journal of medicinal chemistry, 2015).
Like-named read-outs stand apart in the source and are kept apart here.

How the values were obtained:
[1] = tested on: P. falciparum chloroquine-resistant (CQR) 7G8 strain; assay: microbe, parasite or virus in culture; assay type: cell-based; settings: Plasmodium falciparum, 7G8, read-out: antimalarial activity (IC50 in nM) 7G8
[2] = tested on: P. falciparum chloroquine-resistant (CQR) Dd2 strain; assay: microbe, parasite or virus in culture; assay type: cell-based; settings: Plasmodium falciparum, DD2, read-out: antimalarial activity (IC50 in nM) Dd2
[3] = tested on: P. falciparum chloroquine-sensitive (CQS) D6 strain; assay: Malaria SYBR Green I-based Fluorescence; assay type: cell-based, Plasmodium falciparum
[4] = tested on: multidrug-resistant P. yoelii; settings: 100 mg/kg/day, oral route; cited from earlier work
[5] = HepG2 cytotoxicity assay; assay type: cell-based; settings: human, cytotoxicity (IC50 in nM) HepG2, HepG2 cells
[6] = tested on: P. yoelii (Kenya strain, MR4 MRA-428); assay: In vivo efficacy against murine malaria, modified 4-day test, oral gavage; settings: mice
[7] = Plasmodium falciparum, D6, read-out: antimalarial activity (IC50 in nM) D6

Row | Compound | IC50 [1] [nM] | IC50 [2] [nM] | IC50 [3, 7] [nM] | other results
1 | CCCCCCCCCCCC1=N/C(=C\c2[nH]c(-c3ccc[nH]3)cc2OC)C=C1 [Compound 1a, undecylprodiginine, reference compound] | 7 | 7.5 | 7.2 | 
2 | O=C(CNC(=O)c1ccc[nH]1)NC12CC3CC(CC(C3)C1)C2 [Compound 190, N-(2-((Adamantan-1-yl)amino)-2-oxoethyl)-pyrrole-2-carboxamide] | > 2500 | > 2500 | > 2500 | 
3 | CCC1CCCCCCCCC2=N/C(=C\c3[nH]c(-c4ccc[nH]4)cc3OC)C1=C2 (stereo not shown) [Compound 3b, metacycloprodiginine] |  |  |  | mice cured [4]: three of four
4 | O=C(C=Cc1ccc[nH]1)NCC(=O)NC12CC3CC(CC(C3)C1)C2 [Compound 194] |  |  |  | IC50 ([3]; read-out: antimalarial activity (IC50 in nM) D6): > 2500 nM
5 | COC1=CC(c2cccn2C)=NC1=Cc1c(Cc2ccc(Cl)cc2)cc(Cc2ccc(Cl)cc2)n1C [Compound 87, 5’-((3,5-Bis(4-chlorobenzyl)-1-methyl-pyrrol-2-yl)methylene)-4’-methoxy-1-methyl-2,2’-bipyrrole] | > 2500 | > 2500 | > 2500 | 
6 | c1c[nH]c(CCCNCCNC23CC4CC(CC(C4)C2)C3)c1 [Compound 196, N^1-(3-(Pyrrol-2-yl)propyl)-N^2-(adamantan-1-yl)ethane-1,2-diamine] | > 2500 | > 2500 | > 2500 | 
7 | OC(c1cc(C(F)(F)F)nc2c(C(F)(F)F)cccc12)C1CCCCN1 (stereo not shown) [MQ, mefloquine] |  |  |  | IC50 [5]: 21800 nM
8 | c1c[nH]c(CNCCNC23CC4CC(CC(C4)C2)C3)c1 [Compound 191, N^1-((Pyrrol-2-yl)methyl)-N^2-(adamantan-1-yl)ethane-1,2-diamine] | > 2500 | > 2500 | > 2500 | 
9 | CCN(CC)CCCC(C)Nc1ccnc2cc(Cl)ccc12 (stereo not shown) [CQ, chloroquine] | 130 | 115 | 13 | % suppression of parasitaemia on day 5 ([6]; 1 mg/kg × 4 days): 65%; % suppression of parasitaemia on day 5 ([6]; 4 mg/kg × 4 days): 94%; % suppression of parasitaemia on day 5 ([6]; 16 mg/kg × 4 days): 100%; % suppression of parasitaemia on day 5 ([6]; 64 mg/kg × 4 days): 100%
